Test systems include HOP-18 NSCLC; EKVX NSCLC; M19-MEL melanoma; SNB-75 CNS; KM12 colon; DLD-1 colon; HOP-62 NSCLC; U251 CNS; DMS 114 small cell lung; A498 renal; HS 578T breast.
Common to all, as to test: DTP human tumour cell line panel, 48 h

Each structure is given as a SMILES string.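 The compound was tested at five concentrations on cells cultured in 96-well plates, with a 48-hour exposure period. At the TGI there is no net growth.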

Turning to `[N-]=[N+]=NC(c1cn(C2CC(O)C(CO)O2)c(=O)[nH]c1=O)C(Br)Br` (stereo not given), the TGI in the test with HOP-18 NSCLC, with EKVX NSCLC, in the test with M19-MEL melanoma, with SNB-75 CNS, in the test with KM12 colon and in the test on DLD-1 colon was greater than 100 µM each time. The TGI with HOP-62 NSCLC, in the test with U251 CNS and in the test on DMS 114 small cell lung was greater than 100 µM in each case.
As for `Brc1ccc(C[P+]2(c3ccccc3)CCCCC2)cc1`, the TGI (commonly the concentration giving total growth inhibition) in the test on HOP-18 NSCLC was greater than 100 µM; in the test on EKVX NSCLC, greater than 100 µM; in the test with M19-MEL melanoma it was 76.4 µM; with SNB-75 CNS it was 77.1 µM; in the test with KM12 colon it was greater than 100 µM; in the test with DLD-1 colon it was greater than 100 µM. The TGI in the test on HOP-62 NSCLC, in the test on U251 CNS, in the test with DMS 114 small cell lung and in the test with A498 renal was greater than 100 µM throughout.
As to `[N-]=[N+]=NC1OC(=O)C(Cl)=C1N=P(c1ccccc1)(c1ccccc1)c1ccccc1` (stereo not given), the total growth inhibition concentration (TGI) in the test on EKVX NSCLC, in the test with SNB-75 CNS, with KM12 colon, in the test on HOP-62 NSCLC, in the test on HS 578T breast and in the test on U251 CNS was greater than 10 µM throughout. Besides, the total growth inhibition concentration (TGI) in the test with A498 renal is greater than 10 µM.
Regarding `NC(=O)N/N=C(/CC1C(=O)Oc2ccccc21)c1ccccc1O` (stereo not given), the concentration for total growth inhibition (TGI) with EKVX NSCLC, with SNB-75 CNS, in the test with KM12 colon, in the test with HOP-62 NSCLC, in the test with HS 578T breast and with U251 CNS was greater than 100 µM each time. In the test with A498 renal, this molecule displayed a TGI greater than 100 µM.
`COC(=O)/C=C(C)/C=C/C1OC(C)OCC1O` (stereo not given): the TGI in the test on EKVX NSCLC, in the test on M19-MEL melanoma, with KM12 colon, in the test with DLD-1 colon, in the test with HOP-62 NSCLC and in the test on U251 CNS was greater than 100 µM each time. Further, the TGI in the test on DMS 114 small cell lung and in the test on A498 renal was greater than 100 µM each time.
Regarding `Nc1nc(Cl)c(N)c(NCC2(CO)CC2)n1`, the concentration for total growth inhibition (TGI) in the test on EKVX NSCLC, in the test on SNB-75 CNS, in the test on KM12 colon, in the test with HOP-62 NSCLC, in the test with HS 578T breast and with U251 CNS was greater than 100 µM in each case. Further, the TGI in the test on A498 renal was greater than 100 µM.
`NC1=C(NC(=O)Cc2ccccc2F)C(=O)c2ccccc2C1=O`: the TGI with HOP-18 NSCLC is greater than 100 µM; with EKVX NSCLC it was greater than 100 µM; in the test on M19-MEL melanoma, 24.5 µM; in the test on SNB-75 CNS, 62.6 µM; with KM12 colon, greater than 100 µM; in the test with DLD-1 colon it was 52.9 µM. The values for the TGI in the test on HOP-62 NSCLC, with U251 CNS and in the test with DMS 114 small cell lung were 51 µM, greater than 100 µM and greater than 100 µM, respectively.
Take `O=C(/C=C/c1cccc(Oc2ccccc2)c1)NCc1ccc(C(=O)NCc2ccccc2)cc1`: the TGI in the test on EKVX NSCLC was greater than 100 µM; with SNB-75 CNS it was 53.3 µM; in the test with KM12 colon, greater than 100 µM; in the test with HOP-62 NSCLC, 18.8 µM; in the test with HS 578T breast it was greater than 100 µM; in the test on U251 CNS, greater than 100 µM. Moreover, the TGI with A498 renal was greater than 100 µM.
Regarding `CCCCCCCCCCCCCCCCNC(=O)C(=O)/C=C(\O)c1ccc(C)cc1`, the TGI with EKVX NSCLC, in the test with SNB-75 CNS, in the test on KM12 colon, with HOP-62 NSCLC, with HS 578T breast and in the test with U251 CNS was greater than 10 µM each time. For the same molecule, the total growth inhibition concentration (TGI) in the test with A498 renal is greater than 10 µM.
For `O=C(/C=C/c1ccc(-c2ccccc2)cc1)NCc1ccc(C(=O)NCc2ccccc2)cc1`, the TGI with EKVX NSCLC, in the test with SNB-75 CNS, in the test with KM12 colon, with HOP-62 NSCLC, in the test on HS 578T breast and with U251 CNS was greater than 100 µM each time. This molecule also registered a TGI in the test on A498 renal greater than 100 µM.
As for `CS(=O)(=O)OCCN(CCOS(C)(=O)=O)c1ccc(C=Nc2cccc(Cl)c2)cc1`, the concentration for total growth inhibition (TGI) is 46.6 µM in the test on EKVX NSCLC; greater than 31.1 µM in the test on SNB-75 CNS; greater than 100 µM with KM12 colon; greater than 100 µM with HOP-62 NSCLC; 98.9 µM with HS 578T breast; 20.7 µM in the test on U251 CNS. This molecule also came in with a TGI with A498 renal of 13.8 µM.
Regarding `CC(NC(=O)NC(C)(C)C)NC(=O)C(N)CC(=O)O` (stereo not given), the total growth inhibition concentration (TGI) in the test on EKVX NSCLC, with SNB-75 CNS, in the test on KM12 colon, in the test with HOP-62 NSCLC, with HS 578T breast and in the test with U251 CNS was greater than 100 µM in each case. Moreover, the concentration for total growth inhibition (TGI) with A498 renal was greater than 100 µM.
As for `O=C1c2cc(Cl)ccc2NC(=NC2CCCC2)C2CSCN12` (stereo not given), the TGI in the test with EKVX NSCLC, with SNB-75 CNS, in the test with KM12 colon, with HOP-62 NSCLC, with HS 578T breast and in the test on U251 CNS was greater than 100 µM each time. In addition, the total growth inhibition concentration (TGI) with A498 renal is greater than 100 µM.
As for `O=C1C(Br)=C(c2ccccc2)O/C1=C/C(=O)c1ccc(Br)cc1`, the concentration for total growth inhibition (TGI) in the test on EKVX NSCLC, in the test on SNB-75 CNS, in the test with KM12 colon, in the test with HOP-62 NSCLC, in the test with HS 578T breast and in the test with U251 CNS was greater than 100 µM in each case. Moreover, in the test on A498 renal, the concentration for total growth inhibition (TGI) is greater than 100 µM.
For `COc1ccc2nc(-c3ccccc3)cc(OCC(=O)O)c2c1`, the concentration for total growth inhibition (TGI) in the test with EKVX NSCLC, with SNB-75 CNS, in the test on KM12 colon, in the test on HOP-62 NSCLC, in the test on HS 578T breast and with U251 CNS was greater than 100 µM throughout. In the test with A498 renal, this molecule displayed a TGI greater than 100 µM.
Consider `O=C(O)CCS/C(=C\C(SCCC(=O)O)c1ccc(Cl)cc1)c1ccc(Cl)cc1` (stereo not given), for which the TGI is greater than 100 µM in the test with EKVX NSCLC; greater than 100 µM in the test on SNB-75 CNS; 65.4 µM in the test with KM12 colon; greater than 100 µM in the test with HOP-62 NSCLC; greater than 100 µM with HS 578T breast; greater than 100 µM in the test on U251 CNS. The molecule further had a TGI in the test on A498 renal of 39 µM.
As for `CC(C)(C)OC(=O)NC1CC2(C=C(Br)C(=O)C(Br)=C2)OC1=O` (stereo not given), the total growth inhibition concentration (TGI) in the test with EKVX NSCLC was found to be 27.5 µM; with SNB-75 CNS, 36.7 µM; in the test on KM12 colon it was 45.1 µM; in the test with HOP-62 NSCLC, 36.8 µM; with HS 578T breast, 51.3 µM; with U251 CNS it was 31.7 µM. The molecule further displayed a total growth inhibition concentration (TGI) in the test with A498 renal of 47.4 µM.
Consider `CC(=N\N)/C(C)=N/N=C(C)/C(C)=N/N`, for which the TGI in the test with EKVX NSCLC, in the test on SNB-75 CNS, in the test on KM12 colon, in the test with HOP-62 NSCLC, in the test with HS 578T breast and in the test with U251 CNS was greater than 100 µM throughout. In addition, the TGI in the test with A498 renal is greater than 100 µM.
As to `CC[C@@]1(O)C(=O)OCc2c1cc1n(c2=O)Cc2c-1nc1ccccc1c2/C=N\NC(=O)C1CCCN1` (stereo not given in full), the TGI was greater than 100 µM in the test on EKVX NSCLC; 1.8 µM in the test with SNB-75 CNS; greater than 44.6 µM in the test on KM12 colon; 2.16 µM with HOP-62 NSCLC; greater than 100 µM in the test with HS 578T breast; 11.2 µM in the test with U251 CNS. In the test with A498 renal, this molecule gave a TGI of 2.58 µM.
As to `Cc1ccc2c(c1)C(=O)c1nc(C)ccc1C2=O`, the concentration for total growth inhibition (TGI) with EKVX NSCLC, in the test with SNB-75 CNS, in the test on KM12 colon, with HOP-62 NSCLC, in the test on HS 578T breast and with U251 CNS was greater than 100 µM each time. Besides, the TGI in the test with A498 renal is greater than 100 µM.
In the case of `COc1ccc(-n2[nH]nc(C(N)=O)c2=O)cc1`, the TGI in the test with EKVX NSCLC, in the test on SNB-75 CNS, with KM12 colon, in the test on HOP-62 NSCLC, with HS 578T breast and in the test on U251 CNS was greater than 100 µM throughout. Also, in the test with A498 renal, the total growth inhibition concentration (TGI) is greater than 100 µM.
With `COC(=O)C1Cc2cc3c(cc2C1=O)CCCC3` (stereo not given), the TGI in the test with EKVX NSCLC, with SNB-75 CNS, in the test with KM12 colon, with HOP-62 NSCLC, in the test with HS 578T breast and in the test with U251 CNS was greater than 100 µM each time. In the test with A498 renal, the total growth inhibition concentration (TGI) was greater than 100 µM.
Regarding `CC(C)(C)OC(=O)N(CCCCNC(=O)OCc1ccccc1)CCCNC(=O)OCc1ccccc1`, the concentration for total growth inhibition (TGI) in the test on EKVX NSCLC, with SNB-75 CNS, with KM12 colon, with HOP-62 NSCLC, with HS 578T breast and in the test on U251 CNS was greater than 100 µM in each case. Further, the TGI in the test on A498 renal is greater than 100 µM.
`Cc1cc2/c(=C\c3ccc(N(C)C)cc3)c3ccccc3n2[n+]1C`: the TGI came to 8.79 µM with EKVX NSCLC; 2.26 µM in the test on SNB-75 CNS; 5.54 µM in the test on KM12 colon; 8.45 µM with HOP-62 NSCLC; 8.95 µM with HS 578T breast; 1.78 µM in the test on U251 CNS. This molecule also came in with a TGI in the test on A498 renal of 9.33 µM.
For `CC(C)CCC[C@@H](C)[C@H]1CC[C@H]2[C@@H]3CC[C@H]4C[C@@H](CCC=C(c5cc(Cl)c(O)c(C(=O)O)c5)c5cc(Cl)c(O)c(C(=O)O)c5)CC[C@]4(C)[C@H]3CC[C@]12C`, the total growth inhibition concentration (TGI) with EKVX NSCLC, with SNB-75 CNS, with KM12 colon, with HOP-62 NSCLC, with HS 578T breast and in the test with U251 CNS was greater than 100 µM throughout. Also, the total growth inhibition concentration (TGI) in the test with A498 renal is greater than 100 µM.
As for `COC(CN(C(C)=O)C1CCC2(SCCS2)c2[nH]c3ccccc3c21)OC` (stereo not given), the concentration for total growth inhibition (TGI) in the test on EKVX NSCLC, in the test with SNB-75 CNS, in the test on KM12 colon, in the test with HOP-62 NSCLC, with HS 578T breast and in the test on U251 CNS was greater than 100 µM each time. This molecule had a concentration for total growth inhibition (TGI) in the test on A498 renal greater than 100 µM.

Values taken from PubChem BioAssay (NCI).
